Data reported in US20100010049A1, “Novel Tyrosinase inhibitors and pharmaceutical/cosmetic applications thereof” (GALDERMA RESEARCH & DEVELOPMENT, priority 2006, published 2010).

Legend:
[1] = target: T1, tyrosinase (Mus musculus, UniProt P11344); experiment: Tyrosinase activity inhibition assay (B16F1 cell lysate, L-tyrosine substrate, MBTH, absorbance at 520 nm); format: biochemical; conditions: lysate of B16F1 cells (murine melanoma line) as tyrosinase source, 37° C., reading at 520 nm after 6 hours
T1 construct: the supernatant obtained constitutes the cell lysate used as tyrosinase source in the enzymatic assay; endogenous in cells; host or cells: B16F1 murine melanoma cells, cultured with alpha-MSH; detergent lysate supernatant
T1 sequence (P11344 19-533): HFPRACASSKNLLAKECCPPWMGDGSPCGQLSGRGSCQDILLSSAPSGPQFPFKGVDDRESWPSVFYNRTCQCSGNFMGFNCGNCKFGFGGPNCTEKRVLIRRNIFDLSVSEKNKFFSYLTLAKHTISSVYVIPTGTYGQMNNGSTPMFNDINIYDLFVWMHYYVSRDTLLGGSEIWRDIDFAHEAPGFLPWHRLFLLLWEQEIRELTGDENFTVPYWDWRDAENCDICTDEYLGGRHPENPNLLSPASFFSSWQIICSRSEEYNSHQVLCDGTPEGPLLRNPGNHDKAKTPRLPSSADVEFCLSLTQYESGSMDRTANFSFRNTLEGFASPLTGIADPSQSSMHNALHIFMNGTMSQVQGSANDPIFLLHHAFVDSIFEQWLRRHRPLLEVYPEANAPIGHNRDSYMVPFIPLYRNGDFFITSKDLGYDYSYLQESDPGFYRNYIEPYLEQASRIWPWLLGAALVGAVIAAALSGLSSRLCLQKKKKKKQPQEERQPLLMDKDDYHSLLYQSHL
Experimental: The activity of the inhibitors is measured starting from a lysate of B16F1 cells (murine melanoma line). In the presence of the L-tyrosine substrate, the tyrosinase present in these cells catalyses the hydroxylation of L-tyrosine to give L-DOPA and then the oxidation of the L-DOPA to give dopaquinone. In the presence of MBTH (3-methyl-2-benzothiazolinone hydrazone), the dopaquinone is trapped so as to form a pink complex which absorbs at 520 nm.
The B16F1 cells are cultured in DMEM medium+10% foetal calf serum+10^−9 M α-MSH for 4 days at 37° C. under 7% CO2. They are treated with trypsin, washed with PBS, counted and pelleted. The pellet is taken up at 10^7 cells/ml in lysis buffer (10 mM sodium phosphate, pH 6.8−1% Igepal) and the suspension is treated with ultrasound for 10 seconds. After centrifugation for 30 minutes at 4000 rpm, the supernatant obtained constitutes the cell lysate used as tyrosinase source in the enzymatic assay.
The assays are carried out in duplicate in 384-well plates in a total volume of 50 μl. Each well contains: • 40 μl of solution containing 1.25 mM L-tyrosine, 6.25 μM L-DOPA (cofactor) and 3.75 mM MBTH in buffer B (62.25 mM sodium phosphate, pH 6.8-2.5% dimethylformamide), • 5 μl of inhibitor diluted in DMSO, • 5 μl of cell lysate diluted to ½ in 50 mM Tris HCl buffer, pH 7.5.
The plate is incubated at 37° C. and a spectrophotometric reading is carried out at 520 nm after incubating for 6 hours. In order to avoid any possible absorption of the products, the system employs corrected absorbance (absorbance at time 6 h—absorbance at time zero).
The inhibitors are assayed in terms of dose-response so as to calculate an IC50 (dose which inhibits 50% of the enzymatic activity).
Several internal controls are added to each experiment: • control for 100% activity: the 5 μl of inhibitor are replaced with 5 μl of DMSO, • control for 50% activity: the 5 μl of inhibitor are replaced with 5 μl of phenylthiourea at 300 μM in DMSO, • control for 0% activity: the L-tyrosine substrate is replaced with buffer B.

melting point	IC50 [1]	SMILES
196.3 °C	–	On1cc(-c2ccccc2)[nH]c1=S [Compound 5, 1-hydroxy-4-phenyl-1,3-dihydroimidazole-2-thione]
150 °C	0.82 µM	COc1ccc(-c2c[nH]c(=S)n2O)cc1 [Compound 6, 1-hydroxy-5-(4-methoxyphenyl)-1,3-dihydroimidazole-2-thione]
183.6 to 184.8 °C	3.7 µM	On1c(-c2cccs2)c[nH]c1=S [Compound 8, 1-hydroxy-5-(thiophen-2-yl)-1,3-dihydroimidazole-2-thione]
160 °C	–	COc1ccc(-c2cn(O)c(=S)[nH]2)cc1 [Compound 7, 1-hydroxy-4-(4-methoxyphenyl)-1,3-dihydroimidazole-2-thione]
56.9 to 57.5 °C	72 µM	COn1ccn(C)c1=S [Compound 3, 1-methoxy-3-methyl-1,3-dihydroimidazole-2-thione]
128 to 129 °C	–	S=c1[nH]ccn1OCc1cccnc1 [Compound 2, 1-(pyridin-3-ylmethoxy)-1,3-dihydroimidazole-2-thione]
–	0.89 µM	On1c(-c2ccccc2)c[nH]c1=S [Compound 4, 1-hydroxy-5-phenyl-1,3-dihydroimidazole-2-thione]
111 to 111.8 °C	–	COn1cc[nH]c1=S [Compound 1, 1-methoxy-1,3-dihydroimidazole-2-thione]
